{"source": "paper PMC7111793", "about": "(Tetrahedron, 2006)", "target": "SARS-CoV 3CL^pro (Severe acute respiratory syndrome coronavirus, UniProt P0C6X7)", "assay_type": "biochemical", "note": "Peptide text beside a SMILES is read from it. * marks the point of attachment. Cbz = O=C(OCc1ccccc1)*; CF3 = FC(F)(F)*", "data": [{"compound": "CC(C)C[C@H](NC(=O)[C@@H](NC(=O)[C@H](C)NC(=O)OCc1ccccc1)C(C)C)C(=O)N[C@@H](CCC(N)=O)C(=O)C(F)(F)F", "note": "[Compound 4, (S)-4-[N-(Benzyloxycarbonyl)-L-alanyl-L-valyl-L-leucyl]amino-6,6,6-trifluoro-5-oxohexanamide] (Cbz-AVLQ-CF3)", "values": [{"measurement": "inhibitory activity in words", "result": "moderate SARS-CoV 3CL^pro inhibitors"}]}]}
